Results from ChEMBL document CHEMBL3638757, “Pyridazinones, method of making, and method of use thereof” (2015).

Biological target: Tyrosine-protein kinase BTK (Homo sapiens, UniProt Q06187)
Experiment: Biochemical Assay: A generalized procedure for a standard biochemical Btk Kinase Assay that can be used to test Formula I compounds is as follows. A master mix minus Btk enzyme is prepared containing IX Cell Signaling kinase buffer (25 mM Tris-HCl, pH 7.5, 5 mM beta- glycerophosphate, 2 mM dithiothreitol, 0.1 mM Na3V04, 10 mM MgCl2), 0.5 ul Promega PTK Biotinylated peptide substrate 2, and 0.01% BSA. A master mix plus Btk enzyme is prepared containing IX Cell Signaling kinase buffer, 0.5 ul PTK Biotinylated peptide substrate 2, 0.01% BSA, and 100 ng/well (0.06 mU/well) Btk enzyme. Btk enzyme is prepared as follows: full length human wildtype Btk (accession number NM-000061) with a C-terminal V5 and 6x His tag was subcloned into pFastBac vector for making baculo virus carrying this epitope-tagged Btk. Generation of baculovirus is done based on Invitrogen's instructions detailed in its published protocol "Bac-to-Bac Baculovirus Expression Systems".

Chain of Tyrosine-protein kinase BTK (Q06187 whole entry): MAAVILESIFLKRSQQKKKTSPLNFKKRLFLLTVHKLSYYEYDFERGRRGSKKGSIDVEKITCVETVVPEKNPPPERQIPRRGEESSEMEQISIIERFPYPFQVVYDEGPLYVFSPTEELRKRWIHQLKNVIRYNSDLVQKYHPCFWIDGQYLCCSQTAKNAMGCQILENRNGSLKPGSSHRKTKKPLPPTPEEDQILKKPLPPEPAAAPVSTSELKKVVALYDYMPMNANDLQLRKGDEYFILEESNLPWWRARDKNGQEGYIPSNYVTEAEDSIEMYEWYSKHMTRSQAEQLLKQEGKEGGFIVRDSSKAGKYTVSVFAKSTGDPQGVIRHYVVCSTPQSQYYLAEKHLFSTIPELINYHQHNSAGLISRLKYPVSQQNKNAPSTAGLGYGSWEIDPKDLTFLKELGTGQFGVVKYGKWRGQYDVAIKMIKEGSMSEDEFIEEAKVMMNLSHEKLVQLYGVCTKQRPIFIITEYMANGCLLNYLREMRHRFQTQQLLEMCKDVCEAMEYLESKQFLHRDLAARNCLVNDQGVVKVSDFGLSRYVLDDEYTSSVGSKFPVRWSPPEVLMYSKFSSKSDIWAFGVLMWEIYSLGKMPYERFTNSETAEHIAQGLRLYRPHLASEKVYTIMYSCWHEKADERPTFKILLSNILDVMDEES

Work on `Cc1cc(Nc2cc(-c3ccc(F)c(N4Cc5cc(C(C)(C)C)sc5C4=O)c3)n[nH]c2=O)nn1C` yielded an IC50 of 9 nM.
